In patent publication US5189144A, “Human calpastatin-like polypeptide” (Takara Shuzo Co., Ltd., priority 1989, dated 1993):
Entries after “also recorded” stand apart in the source; their conditions may differ. No end group written: not given here.

System: calpain
Assay: assay of calpain inhibition (casein substrate, acid-soluble fraction read at 280 nm)
Format: biochemical
Settings: 15 min at 30° C. after adding calcium chloride, absorbance at 280 nm of the supernatant, profiles only in FIGS. 3 and 4
Experimental: Confirmation of expression can be done by the measurement of the inhibition of calpain, as in the measurement done with casein as the substrate, with extraction from a culture fluid of E. coli, and measurement of the decrease in the acid-soluble fraction by the use of spectroscopy.
The assay of calpain inhibition was done as described below (A. Kitahara et al., J. Biochem., 95, 1759-1766, 1984). First, 10 μl of the sample 2.5 μl of calpain at the concentration of 1 mg/ml, 40 μl of 2% casein in imidazole, and 20 μl of crysteine at the concentration of 6 mg/ml were mixed together, giving a total volume of 180 μl. Next, the mixture was treated for 5 min at 30° C., after which 20 μl of 50 mM calcium chloride was added, and the mixture was incubated for 15 min at 30° C. Then 200 μl of 5% trichloroacetic acid was added to stop the reaction, and the mixture was centrifuged at 12,000 rpm for 10 min. The supernatant was obtained, and its absorbance at 280 nm was measured, from which the inhibitory activity toward calpain was calculated.

Sequence | inhibitory activity toward calpain
DPMSSTYIEELGKREVTIPPKYRELL [polypeptide of 26 amino acids] | can inhibit calpain; also recorded: had calpastatin-like activity
TYIEELGKREVTIPPKYR [polypeptide of 18 amino acids] | can inhibit calpain; also recorded: still has activity; also recorded: inhibited calpain
TYIEELGKREVTIPPKYRELL [polypeptide of 21 amino acids] | can inhibit calpain; also recorded: had calpastatin-like activity
YIEELGKREVTIPPKYR [polypeptide with 17 amino acids, reference compound] | almost undetectable
